Patent US20230348426A1, “OXOPYRROLIDINE FPR2 AGONISTS” (Bristol-Myers Squibb Company, priority 2020, published 2023)

Key:
human FPR1 = human FPR1 (Homo sapiens (Human), UniProt P21462); experiment: FPR1 cyclic adenosine monophosphate (cAMP) assay; format: cell-based; details: CHO cells overexpressing human FPR1; forskolin 10 µM; inhibition of cAMP production; read-out: hFPR1 cAMP EC50
Text: (§1) N-formyl peptide receptors (FPRs) are a family of chemo attractant receptors that facilitate leukocyte response during inflammation. FPRs belong to the seven-transmembrane G protein-coupled receptor superfamily and are linked to inhibitory G-proteins (Gi). Three family members (FPR1, FPR2 and FPR3) have been identified in humans and are predominantly found in myeloid cells with varied distribution and have also been reported in multiple organs and tissues. After agonist binding, the FPRs activate a multitude of physiological pathways, such as intra cellular signaling transduction, Ca^2+ mobilization and transcription. The family interacts with a diverse set of ligands that includes proteins, polypeptides and fatty acid metabolites which activate both pro-inflammatory and pro-resolution downstream responses. FPR2 and FPR1 Cyclic Adenosine Monophosphate (cAMP) Assays were used to measure the activity of the compounds in this patent.
FPR2 and FPR1 Cyclic Adenosine Monophosphate (cAMP) Assays. A mixture of forskolin (5 µM final for FPR2 or 10 µM final for FPR1) and IBMX (200 µM final) were added to 384-well Proxiplates (Perkin-Elmer) pre-dotted with test compounds in DMSO (1% final) at final concentrations in the range of 0.020 nM to 100 µM. Chinese Hamster Ovary cells (CHO) overexpressing human FPR1 or human FPR2 receptors were cultured in F-12 (Ham’s) medium supplemented with 10% qualified FBS, 250 µg/ml zeocin and 300 µg/ml hygromycin (Life Technologies). Reactions were initiated by adding 2,000 human FPR2 cells per well or 4,000 human FPR1 cells per well in Dulbecco’s PBS (with calcium and magnesium) (Life Technologies) supplemented with 0.1% BSA (Perkin-Elmer). The reaction mixtures were incubated for 30 min at room temperature. The level of intracellular cAMP was determined using the HTRF HiRange cAMP assay reagent kit (Cisbio) according to manufacturer’s instruction. Solutions of cryptate conjugated anti-cAMP and d2 flurorophore-labelled cAMP were made in a supplied lysis buffer separately. Upon completion of the reaction, the cells were lysed with equal volume of the d2-cAMP solution and anti-cAMP solution. […] The potency and activity of a compound to inhibit cAMP production was then determined by fitting to a 4-parametric logistic equation from a plot of cAMP level versus compound concentrations.

human FPR2 = human FPR2 (Homo sapiens (Human), UniProt P25090); experiment: FPR2 cyclic adenosine monophosphate (cAMP) assay; format: cell-based; details: CHO cells overexpressing human FPR2; forskolin 5 µM; inhibition of cAMP production; read-out: hFPR2 cAMP2 EC50
Text: as §1
FPR2 and FPR1 Cyclic Adenosine Monophosphate (cAMP) Assays. A mixture of forskolin (5 µM final for FPR2 or 10 µM final for FPR1) and IBMX (200 µM final) were added to 384-well Proxiplates (Perkin-Elmer) pre-dotted with test compounds in DMSO (1% final) at final concentrations in the range of 0.020 nM to 100 µM. Chinese Hamster Ovary cells (CHO) overexpressing human FPR1 or human FPR2 receptors were cultured in F-12 (Ham’s) medium supplemented with 10% qualified FBS, 250 µg/ml zeocin and 300 µg/ml hygromycin (Life Technologies). Reactions were initiated by adding 2,000 human FPR2 cells per well or 4,000 human FPR1 cells per well in Dulbecco’s PBS (with calcium and magnesium) (Life Technologies) supplemented with 0.1% BSA (Perkin-Elmer). The reaction mixtures were incubated for 30 min at room temperature. The level of intracellular cAMP was determined using the HTRF HiRange cAMP assay reagent kit (Cisbio) according to manufacturer’s instruction. Solutions of cryptate conjugated anti-cAMP and d2 flurorophore-labelled cAMP were made in a supplied lysis buffer separately. Upon completion of the reaction, the cells were lysed with equal volume of the d2-cAMP solution and anti-cAMP solution. After a 1-h room temperature incubation, time-resolved fluorescence intensity was measured using the Envision (Perkin-Elmer) at 400 nm excitation and dual emission at 590 nm and 665 nm. A calibration curve was constructed with an external cAMP standard at concentrations ranging from 1 µM to 0.1 pM by plotting the fluorescent intensity ratio from 665 nm emission to the intensity from the 590 nm emission against cAMP concentrations. The potency and activity of a compound to inhibit cAMP production was then determined by fitting to a 4-parametric logistic equation from a plot of cAMP level versus compound concentrations.

Sequence of human FPR2 (P25090 whole entry): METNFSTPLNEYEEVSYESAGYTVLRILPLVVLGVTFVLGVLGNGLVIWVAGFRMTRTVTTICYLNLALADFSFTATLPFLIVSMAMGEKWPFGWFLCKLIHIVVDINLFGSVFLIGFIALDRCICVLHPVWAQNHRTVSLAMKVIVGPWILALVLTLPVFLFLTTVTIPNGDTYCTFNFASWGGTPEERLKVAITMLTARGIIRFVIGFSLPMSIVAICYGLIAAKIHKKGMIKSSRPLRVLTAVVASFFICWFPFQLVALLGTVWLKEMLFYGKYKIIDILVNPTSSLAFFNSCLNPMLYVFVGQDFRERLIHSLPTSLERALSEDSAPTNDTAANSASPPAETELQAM
Sequence of human FPR1 (P21462 whole entry): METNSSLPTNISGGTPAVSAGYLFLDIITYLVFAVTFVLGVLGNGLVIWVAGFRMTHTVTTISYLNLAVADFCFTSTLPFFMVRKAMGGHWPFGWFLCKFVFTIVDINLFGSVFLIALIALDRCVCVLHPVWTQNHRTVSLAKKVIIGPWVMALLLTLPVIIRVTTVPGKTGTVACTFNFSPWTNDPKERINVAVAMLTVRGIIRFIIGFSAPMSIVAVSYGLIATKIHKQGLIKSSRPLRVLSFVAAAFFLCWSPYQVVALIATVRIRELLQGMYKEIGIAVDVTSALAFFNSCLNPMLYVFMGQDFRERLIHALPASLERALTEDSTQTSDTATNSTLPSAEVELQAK

COc1cc(N2C[C@@H]3C[C@H]2CN3C)nc(N2C(=O)[C@@H](NC(=O)c3ccc(OC(F)F)cc3)[C@H](c3c(F)cc(OC)cc3F)[C@@H]2C)c1 [Example 51]
EC50 (human FPR1): 5500 nM
EC50 (human FPR2): 1.2 nM

COc1ccc([C@@H]2CN(c3c(C)ccn(CC(F)F)c3=O)C(=O)[C@H]2NC(=O)c2ccc(OC(F)F)cc2)c(F)c1 [Example 376]
EC50 (human FPR1): 4 nM
EC50 (human FPR2): 0.4 nM

COCC(C(=O)N1CC[C@@H](O)C1)n1cccc(N2C[C@@H](c3c(F)cc(OC)cc3F)[C@H](NC(=O)c3ccc(OC(F)F)cc3)C2=O)c1=O (stereo partly drawn) [Example 448]
EC50 (human FPR1): 9 nM
EC50 (human FPR2): 8 nM

COc1ccc([C@@H]2CN(c3cccn(CC(O)C(F)(F)F)c3=O)C(=O)[C@H]2NC(=O)c2ccc(OC(F)(F)F)cc2)cc1 (stereo partly drawn) [Example 656]
EC50 (human FPR1): 13 nM
EC50 (human FPR2): 2.5 nM

COc1cc(F)c([C@@H]2CN(c3ccc[nH]c3=O)C(=O)[C@H]2NC(=O)c2ccc(Cl)cc2)c(F)c1 [Example 87]
EC50 (human FPR1): 750 nM
EC50 (human FPR2): 2.3 nM

COc1cc(N2C[C@@H]3C[C@H]2CN3C)nc(N2C(=O)[C@@H](NC(=O)c3ccc(Cl)cc3)[C@H](c3c(F)cc(OC)cc3F)[C@H]2C)c1 [Example 49]
EC50 (human FPR1): 2000 nM
EC50 (human FPR2): 1.1 nM

COc1cc(F)c([C@@H]2CN(c3nc(N4CC5(COC5)C4)ccc3OC)C(=O)[C@H]2NC(=O)c2ccc(OC(F)F)cc2)c(F)c1 [Example 223]
EC50 (human FPR1): 100 nM
EC50 (human FPR2): 6.1 nM

COc1cc(F)c([C@@H]2CN(c3nccc(NCC(=O)NC4CC4)c3C(F)(F)F)C(=O)[C@H]2NC(=O)c2ccc(Cl)cc2)c(F)c1 [Example 281]
EC50 (human FPR1): 560 nM
EC50 (human FPR2): 8.2 nM

COc1cc(F)c([C@H]2[C@H](NC(=O)c3ccc(OC(F)F)cc3)C(=O)N(c3cccn(CCO)c3=O)[C@@H]2C)c(F)c1 [Example 407]
EC50 (human FPR1): 640 nM
EC50 (human FPR2): 7.8 nM

COCC(CO)n1cccc(N2C(=O)[C@@H](NC(=O)c3ccc(OC(F)(F)F)cc3)[C@H](c3c(F)cc(OC)cc3F)[C@@H]2C)c1=O (stereo partly drawn) [Example 293]
EC50 (human FPR1): 44 nM
EC50 (human FPR2): 8.7 nM

COc1cc(F)c([C@@H]2CN(c3cc(C)cc(C4CCNCC4)n3)C(=O)[C@H]2NC(=O)c2ccc(OC(F)F)cc2)c(F)c1 [Example 716]
EC50 (human FPR1): > 5000 nM
EC50 (human FPR2): 5.7 nM

COCCn1cccc(N2C[C@@H](c3ccc(OC)cc3)[C@H](NC(=O)c3ccc(OC(F)F)cc3)C2=O)c1=O [Example 276]
EC50 (human FPR1): 13 nM
EC50 (human FPR2): 8 nM

COc1cc(F)c([C@@H]2CN(c3cn(C)nc3OC)C(=O)[C@H]2NC(=O)c2ccc(Cl)cc2)c(F)c1 [Example 629]
EC50 (human FPR1): 670 nM
EC50 (human FPR2): 9.9 nM

COCCn1cccc(N2C[C@@H](c3ccc(OC)cc3)[C@H](NC(=O)c3ccc(OC(F)(F)F)cc3)C2=O)c1=O [Example 60]
EC50 (human FPR1): 2.6 nM
EC50 (human FPR2): 1.6 nM

CCn1cccc(N2C[C@@H](c3c(F)cc(OC)cc3F)[C@H](NC(=O)c3ccc(OC(F)F)cc3)C2=O)c1=O [Example 38]
EC50 (human FPR1): 18 nM
EC50 (human FPR2): 5.1 nM

COc1cc(F)c([C@@H]2CN(c3c(C)ccn(CCS(C)(=O)=O)c3=O)C(=O)[C@H]2NC(=O)c2ccc(OC(F)F)cc2)c(F)c1 [Example 470]
EC50 (human FPR1): 8 nM
EC50 (human FPR2): 1.9 nM

COc1cc(F)c([C@@H]2CN(c3nc(C(F)(F)F)ccc3N3CC[C@H](O)C3)C(=O)[C@H]2NC(=O)c2ccc(Cl)cc2)c(F)c1 [Example 212]
EC50 (human FPR1): 100 nM
EC50 (human FPR2): 5.6 nM

COc1cc(F)c([C@@H]2CN(c3nc(C)ccc3F)C(=O)[C@H]2NC(=O)c2ccc(Cl)cc2)c(F)c1 [Example 111]
EC50 (human FPR1): 1100 nM
EC50 (human FPR2): 3 nM

COc1cc(F)c([C@@H]2CN(c3cccc(C4CCCNC4)n3)C(=O)[C@H]2NC(=O)c2ccc(OC(F)F)cc2)c(F)c1 (stereo partly drawn) [Example 718]
EC50 (human FPR1): 840 nM
EC50 (human FPR2): 0.9 nM

CNC(=O)C(C)Nc1ccnc(N2C[C@@H](c3c(F)cc(OC)cc3F)[C@H](NC(=O)c3ccc(Cl)cc3)C2=O)c1C(F)(F)F (stereo partly drawn) [Example 290]
EC50 (human FPR1): 1800 nM
EC50 (human FPR2): 8.6 nM

COc1ccc([C@@H]2CN(c3c(C)ccn(CC(F)F)c3=O)C(=O)[C@H]2NC(=O)c2ccc(OC(F)(F)F)cc2)cc1 [Example 121]
EC50 (human FPR1): 1.4 nM
EC50 (human FPR2): 3.1 nM

COc1cc(F)c([C@@H]2CN(c3cncn(C4CCNC4)c3=O)C(=O)[C@H]2NC(=O)c2ccc(Cl)cc2)c(F)c1 (stereo partly drawn) [Example 714]
EC50 (human FPR1): 3600 nM
EC50 (human FPR2): 6.4 nM

COc1cc(F)c([C@@H]2CN(c3nc(N(C)C(C)=O)ccc3F)C(=O)[C@H]2NC(=O)c2ccc(OC(F)(F)F)cc2)c(F)c1 [Example 114]
EC50 (human FPR1): 5.9 nM
EC50 (human FPR2): 3 nM

COc1cc(F)c([C@@H]2CN(c3c(C)ccn(C(CO)C(F)(F)F)c3=O)C(=O)[C@H]2NC(=O)c2ccc(OC(F)F)cc2)c(F)c1 (stereo partly drawn) [Example 707]
EC50 (human FPR1): 130 nM
EC50 (human FPR2): 5.4 nM

COc1cc(N2CCN(C)CC2)nc(N2C[C@@H](c3c(F)cc(OC)cc3F)[C@H](NC(=O)c3ccc(OC(F)F)cc3)C2=O)c1 [Example 35]
EC50 (human FPR1): > 10000 nM
EC50 (human FPR2): 3.1 nM

COc1cc(F)c([C@@H]2CN(c3nc(N4C(=O)C5CCCC54)ccc3F)C(=O)[C@H]2NC(=O)c2ccc(OC(F)F)cc2)c(F)c1 (stereo partly drawn) [Example 66]
EC50 (human FPR1): 49 nM
EC50 (human FPR2): 1.8 nM

CCn1cc2c(c(N3C[C@@H](c4c(F)cc(OC)cc4F)[C@@H](NC(=O)c4ccc(OC(F)F)cc4)C3=O)c1=O)CCCC2 [Example 664]
EC50 (human FPR1): 190 nM
EC50 (human FPR2): 8.7 nM

O=C(N[C@@H]1C(=O)N(c2cccn(CC(O)C(F)(F)F)c2=O)C[C@H]1c1ccc(Cl)cc1)c1ccc(OC(F)F)cc1 (stereo partly drawn) [Example 368]
EC50 (human FPR1): 86 nM
EC50 (human FPR2): 1.7 nM

COCC(C(=O)N(C)C)n1cccc(N2C[C@@H](c3c(F)cc(OC)cc3F)[C@H](NC(=O)c3ccc(OC(F)(F)F)cc3)C2=O)c1=O (stereo partly drawn) [Example 283]
EC50 (human FPR1): 19 nM
EC50 (human FPR2): 8.4 nM

COc1cc(N2C[C@@H]3C[C@H]2CO3)nc(N2C(=O)[C@@H](NC(=O)c3ccc(OC(F)(F)F)cc3)[C@H](c3c(F)cc(OC)cc3F)[C@@H]2C)c1 [Example 552]
EC50 (human FPR1): 440 nM
EC50 (human FPR2): 130 nM

CCn1cccc(N2C[C@@H](c3ccc(OC)cc3F)[C@H](NC(=O)c3ccc(OC(F)(F)F)cc3)C2=O)c1=O [Example 249]
EC50 (human FPR1): 13 nM
EC50 (human FPR2): 6.9 nM

COc1cc(F)c([C@@H]2CN(c3cccn(CC(O)C(F)(F)F)c3=O)C(=O)[C@H]2NC(=O)c2ccc(OC(F)F)cc2)c(F)c1 (single isomer, unassigned) [Example 4]
EC50 (human FPR1): 290 nM
EC50 (human FPR2): 1.7 nM

COc1cc(F)c([C@@H]2CN(c3cccn(C(CO)C(F)(F)F)c3=O)C(=O)[C@H]2NC(=O)c2ccc(OC(F)F)cc2)c(F)c1 (stereo partly drawn) [Example 582]
EC50 (human FPR1): 550 nM
EC50 (human FPR2): 4.7 nM

COc1cc(C)nc(N2C[C@@H](c3c(F)cc(OC)cc3F)[C@H](NC(=O)c3ccc(OC(F)F)cc3)C2=O)c1 [Example 588]
EC50 (human FPR1): 410 nM
EC50 (human FPR2): 6.9 nM

COCC(C(=O)N(C)C)n1cccc(N2C[C@@H](c3ccc(Cl)cc3)[C@H](NC(=O)c3ccc(OC(F)(F)F)cc3)C2=O)c1=O (stereo partly drawn) [Example 245]
EC50 (human FPR1): 1.1 nM
EC50 (human FPR2): 6.8 nM

COc1cc(F)c([C@@H]2CN(c3cc(C(F)(F)F)cn(C)c3=O)C(=O)[C@H]2NC(=O)c2ccc(OC(F)F)cc2)c(F)c1 [Example 168]
EC50 (human FPR1): 1600 nM
EC50 (human FPR2): 4.3 nM
